According to the OPERA property sets (Mansouri et al. 2018):
Values after ≈ are worked out from the molar mass of the structure shown.

Settings: for solubility: 20 °C

Compound `CNC(=O)Oc1ccccc1OC(C)C` has a solubility of 8890 µM (≈ 1860 µg/mL).
Compound `COP(=S)(OC)Oc1ccc([N+](=O)[O-])cc1` has a solubility of 143 µM (≈ 37.7 µg/mL).
`CCOP(=S)(OCC)SCn1nnc2ccccc2c1=O` showed a solubility of 30.4 µM (≈ 10.5 µg/mL).
Work on `COP(=S)(OC)Oc1ccc([N+](=O)[O-])cc1Cl` yielded a solubility of 49.4 µM (≈ 14.7 µg/mL).
In the case of `CCOP(=O)(OCC)OC(=CCl)c1ccc(Cl)cc1Cl`, the solubility is reported as 345 µM (≈ 124 µg/mL).
For `COP(=S)(OC)Oc1ccc(SC)c(C)c1`, the solubility was 26.9 µM (≈ 7.5 µg/mL).
`CCOC(=O)CC(SP(=S)(OC)OC)C(=O)OCC` (configuration not stated) showed a solubility of 433 µM (≈ 143 µg/mL).
Compound `COc1nn(CSP(=S)(OC)OC)c(=O)s1` has a solubility of 619 µM (≈ 187 µg/mL).
With `CCOP(=O)(OCC)SCS(=O)(=O)CC` the logP was 1.98.
For `COP(=S)(OC)SCSc1ccc(Cl)cc1`, the solubility was 5.08 µM (≈ 1.6 µg/mL).
`CNC(=O)Oc1ccc(N(C)C)c(C)c1` showed a solubility of 4390 µM (≈ 915 µg/mL).
`COP(=S)(OC)SCN1C(=O)c2ccccc2C1=O` gave a solubility of 76.9 µM (≈ 24.4 µg/mL).
